In one data set the test system is human neutrophils. Description: PMN transmigration assay (Salmonella typhimurium-infected T84 monolayer, HXA3/MRP2-driven neutrophil migration, MPO readout). The class given is cell-based. On the procedure:
PMN transmigration assay. T84 colorectal cancer cells were grown to confluence on the bottom side of 12 well polycarbonate membrane inserts of a 24 well Transwell® plate. The confluent growth of these epithelial cells results in physiologically-relevant apical (luminal) and basolateral surfaces in the transwells. […] The monolayer was then infected on the apical surface with Salmonella typhimurium for 2 hours to induce hepoxilin A3 (HXA3) efflux through the MRP2 membrane protein and into the apical chamber. […] Freshly isolated and prepared human neutrophils were then added to the basolateral side and allowed to transmigrate through the monolayer for 2 hours. The number of neutrophils migrated to the apical chamber (due to the HXA3 gradient) was then assayed by determination of myeloperoxidase activity (a neutrophil biomarker). Inhibition of transmigration is indicated by lower MPO activity in the apical chamber.

A short description of data set [1]: Feces stability (rat feces homogenate). Conditions: 10 μM, 37° C., 24 hours, predicted. The class given is in vitro ADME, Sprague-Dawley rat. On the procedure: Feces stability. Immediately prior to the study, male Sprague-Dawley rat feces were collected overnight over a mix of dry and wet ice. Feces were then homogenized in phosphate buffer at pH 6.5 and filtered to remove particles. BT090 ([…]) was incubated in duplicate at 37° C. for a total of 24 hours in the freshly prepared rat feces homogenate. At selected time points (0.5, 2, 6 and 24 hours), a 25 μL aliquot was taken from the incubation mixtures and quenched with 225 μL of acetonitrile containing the internal standards (IS). Samples were then centrifuged to pellet the precipitated proteins and the supernatants were diluted 5-fold. The 0 hour samples were prepared in pre-quenched feces homogenate towards the end of the incubation period. All quenched samples were then submitted to bioanalysis for LC-MS/MS quantification.
Bioanalysis. BT090 samples were analyzed by LC-MS/MS using a Thermo Accela UPLC and a Thermo Q-Exactive mass spectrometer. The [M+H]+ adducts of the compounds and internal standards were monitored using positive mode electrospray ionization in exact mass mode. […]
Feces stability. […] All quenched samples are then submitted to bioanalysis for LC-MS/MS quantification.
Bioanalysis. […] The [M+H]+ adducts of the compounds and internal standards are monitored using positive mode electrospray ionization in exact mass mode. […]

Data set [2] can be described thus: Amount excreted in feces after oral dosing in rats. The class given is in vivo, Sprague-Dawley rats. Conditions: rat, individual animals.
[3] abbreviates: BT070 10 mg/kg orally, 0-24 h, 10 mg/kg.

The structures appear in SMILES notation. Where “and” joins values, the source holds several entries; their conditions need not be identical. Equal entries are not always repeated.

In the case of `CC[C@@H]1NC(=O)[C@H]([C@H](O)[C@H](C)CCCCCC(=O)O)N(C)C(=O)[C@H](C(C)C)N(C)C(=O)[C@H](CC(C)C)N(C)C(=O)[C@H](CC(C)C)N(C)C(=O)[C@@H](C)NC(=O)[C@H](C)NC(=O)[C@H](CC(C)C)N(C)C(=O)[C@H](C(C)C)NC(=O)[C@H](CC(C)C)N(C)C(=O)CN(C)C1=O` [BT070], in the data set with human neutrophils (FIG. 1, result in words), the “dose-response of inhibition of neutrophil migration” value is recorded as “dose-responsive inhibition”. Further, the “inhibition of neutrophil migration” value in the data set on human neutrophils (dose of 100 nM, result in words) was “exhibit inhibition”. The “stability in fresh rat fecal homogenate” value in data set [1] was “stable”. Also, the Amount in feces in data set [2] (BT070 10 mg/kg orally, 0-4 h) is 561.4 ng; in data set [2] (BT070 10 mg/kg orally, 4-8 h, 10 mg/kg), 181805.0 ng and 875239.4 ng; in data set [2] (BT070 10 mg/kg orally, 8-24 h, 10 mg/kg), 1030677.2 ng and 252114.1 ng and 1016595.6 ng; in data set [2] (BT070 as breakdown product after BT051 10 mg/kg orally, 8-24 h), 31200 ng and 14300 ng and 10600 ng and 34800 ng; in data set [2] (BT070 as breakdown product after BT051 10 mg/kg orally, 24-48 h), 5700 ng and 19100 ng and 30800 ng and 3700 ng. Moreover, the “% of dose excreted unchanged in feces” value in data set [2] (setting [3]) is 44.6% and 9.0% and 72.2%. Moreover, the “Total amount excreted unchanged in feces” value in data set [2] (setting [3]) is 1212482.2 ng and 252675.5 ng and 1891835.1 ng. In addition, the “Total amount excreted in feces” value in data set [2] (BT070 as breakdown product after BT051 10 mg/kg orally, 0-48 h) was 36.9 µg and 33.4 µg and 41.4 µg and 38.5 µg.

The record behind these values is patent US20240277798A1, “CYCLOSPORINE COMPOSITIONS AND METHODS OF USE” (Bacainn Biotherapeutics, Ltd., priority 2021, published 2024).
